Among the data in paper PMC7824787, “Design, Synthesis and In Vitro Investigation of Novel Basic Celastrol Carboxamides as Bio-Inspired Leishmanicidal Agents Endowed with Inhibitory Activity against Leishmania Hsp90” (Biomolecules, 2021) are IC50 values, retold here.

Where two headings read alike, the source gives them in different places.

The subject of assay [1] is L. tropica promastigotes. In words: Antileishmanial activity on L. tropica promastigotes (MTT). Format: cell-based. How it is done: Promastigote stage of L. infantum (MHOM/TN/80/IPT1, kindly provided by Dr. M. Gramiccia and Dr. T. Di Muccio, ISS, Roma) and L. tropica (MHOM/SY/2012/ISS3130) were cultured in RPMI 1640 medium (EuroClone) supplemented with 15% heat-inactivated fetal calf serum (EuroClone, Milan, Italy), 20 mM HEPES, and 2 mM L-glutamine at 23 °C. The MTT (3-[4.5-dimethylthiazol-2-yl]-2.5-diphenyltetrazolium bromide) method was used to estimate the 50% inhibitory concentration (IC50), with some modifications. Compounds were dissolved in DMSO and then diluted with medium to achieve the required concentrations. Test compounds were placed in 96 wells round bottom microplates and seven serial dilutions made. Amphotericin B was used as the reference antileishmanial drug. Parasites were diluted in complete medium to 5 × 10^6 parasites/mL and 100 μL of the suspension was seeded into the plates and incubated at 23 °C for 72 h. Then 20 μL of MTT solution (5 mg/mL) was added into each well, after 3 h the plates were centrifuged, the supernatants discarded and the resulting pellets dissolved in 100 μL of lysing buffer consisting of 20% (w/v) of a solution of SDS (Sigma), 40% of N,N-dimethylformamide (Merck) in H2O. The absorbance of the obtained solutions was measured at a wavelength of 550 nm with a reference at 650 nm with a microplate spectrophotometer (Synergy 4-Biotek, Milan, Italy) and analyzed with the Gen5® software for data processing.
The results are expressed as IC50, the dose of compound that is necessary to inhibit cell growth by 50%; each IC50 value is the mean ± standard deviation of at least three separate experiments performed in duplicate.

Assay [2] has as its system BMDM. In words: Cytotoxicity on BMDM (MTT). As to conditions: Mus musculus, BMDM; 72 h, MTT; read-out: Healthy Cell Lines IC50, BMDM. Format: cell-based, mouse. As for the experimental part:
(§1) Cytotoxicity was evaluated on human microvascular endothelial cells (HMEC-1, provided by the Centers for Disease Control, Atlanta, GA, USA), on immortalized mouse C57Bl/6 bone marrow derived macrophages (BMDM) from wild type lineage (generated in the laboratories of Drs. Douglas Golenbock and Kate Fitzgerald, University of Massachusetts, Worcester, MA, USA) and on a human acute monocytic leukaemia cell line (THP-1).
(§2) HMEC-1 were maintained in MCDB 131 medium (Invitrogen, Milan, Italy) supplemented with 10% fetal calf serum (HyClone), 10 ng/mL of epidermal growth factor, 1 μg/mL of hydrocortisone, 2 mM glutamine and 20 mM HEPES buffer, at 37 °C in 5% CO2. BMDM were maintained in DMEM (Euroclone) medium supplemented with 10% fetal bovine serum (HyClone, Celbio, Milan, Italy), 2 mM glutamine, and 25 mM of HEPES buffer solution (Euroclone). THP-1 were maintained in RPMI supplemented with 10% heat-inactivated FCS, 50 µM 2-mercaptoethanol, 10 µM sodium pyruvate, 20 mM HEPES, and 2 mM glutamine. In order to achieve differentiation into macrophages, cells were treated with 10 ng/mL phorbol myristate acetate (PMA) for 72 h.
(§3) For the cytotoxicity assay, cells were seeded in 96 well flat bottom tissue culture clusters (Costar, New York, NY, USA) at the following concentrations: HMEC 10^5 cell/mL, BMDM at 10^6 cell/mL, THP1 at 5 × 10^5 cell/mL. After 24 h, cells were treated with serial dilutions of test compounds in a final volume of 200 µL/well. Cell proliferation was evaluated after 72 h using the MTT assay.
(§4) The absorbances were measured with a microplate spectrophotometer (Synergy 4-Biotek) at a test wavelength of 550 nm and a reference wavelength of 650 nm. The results are expressed as IC50 as the concentration inhibiting 50% of cell growth. Each IC50 value is the mean and standard deviation of at least three separate experiments performed in duplicate.

Assay [3] concerns L. infantum promastigotes. In words: Antileishmanial activity on L. infantum promastigotes (MTT). Type of assay: cell-based.
The subject of assay [4] is HMEC-1. In words: Cytotoxicity on HMEC-1 (MTT). Type of assay: cell-based, human. The note with it: Homo sapiens, read-out: Healthy Cell Lines IC50, HMEC-1. As for the experimental part: as §1, §2, §3, §4
[5] abbreviates: Leishmania tropica, 72 h, 23 °C, MTT, read-out: Leishmania Promastigotes IC50, L. tropica.
Where [6] appears, read: Leishmania infantum, 72 h, 23 °C, MTT, read-out: Leishmania Promastigotes IC50, L. infantum.
The mark [7] stands for this setting: 72 h, 23 °C, MTT; read-out: Leishmania Promastigotes IC50, L. tropica.
Setting [8] is: 72 h, 23 °C, MTT; read-out: Leishmania Promastigotes IC50, L. infantum.

As for `CC1=C(O)C(=O)C=C2C1=CC=C1[C@@]2(C)CC[C@@]2(C)[C@@H]3C[C@](C)(C(=O)O)CC[C@]3(C)CC[C@]12C` [CE, celastrol], the IC50 (commonly the concentration at which inhibition is half-maximal) in assay [1] (Leishmania tropica; 72 h, 23 °C, MTT; read-out: Leishmania Promastigotes IC50, L. tropica) stood at 490 ± 170 nM; in assay [2], 1760 ± 430 nM; in assay [3] (Leishmania infantum; 72 h, 23 °C, MTT; read-out: Leishmania Promastigotes IC50, L. infantum) it was 210 ± 70 nM; in assay [4] (HMEC-1, 72 h), 380 ± 80 nM.
With `CC1=C(O)C(=O)C=C2C1=CC=C1[C@@]2(C)CC[C@@]2(C)[C@@H]3C[C@](C)(C(=O)NCCN4CCCCC4)CC[C@]3(C)CC[C@]12C` [compound 1, (2R,4aS,6aS,12bR,14aS,14bR)-10-hydroxy-2,4a,6a,9,12b,14a-hexamethyl-11-oxo-N-(2-(piperidin-1-yl)ethyl)-1,2,3,4,4a,5,6,6a,11,12b,13,14,14a,14b-tetradecahydropicene-2-carboxamide], the IC50 in assay [1] (setting [5]) came out at 90 ± 30 nM; in assay [2], 3610 ± 380 nM; in assay [3] (setting [6]), 60 ± 20 nM; in assay [4] (HMEC-1, 72 h, MTT) it was 510 ± 80 nM.
On to `CC1=C(O)C(=O)C=C2C1=CC=C1[C@@]2(C)CC[C@@]2(C)[C@@H]3C[C@](C)(C(=O)NCCN4CCCC4)CC[C@]3(C)CC[C@]12C` [compound 3, (2R,4aS,6aS,12bR,14aS,14bR)-10-hydroxy-2,4a,6a,9,12b,14a-hexamethyl-11-oxo-N-(2-(pyrrolidin-1-yl)ethyl)-1,2,3,4,4a,5,6,6a,11,12b,13,14,14a,14b-tetradecahydropicene-2-carboxamide], for which the IC50 in assay [1] (setting [7]) was 80 ± 40 nM; in assay [1] (setting [5]) it was less than 100 nM; in assay [2] it was 4530 ± 50 nM; in assay [3] (setting [8]), 60 ± 10 nM; in assay [3] (setting [6]), less than 100 nM; in assay [4] (HMEC-1, 72 h, MTT) it was 530 ± 170 nM.
Turning to `CC1=C(O)C(=O)C=C2C1=CC=C1[C@@]2(C)CC[C@@]2(C)[C@@H]3C[C@](C)(C(=O)NCC45CCCN4CCC5)CC[C@]3(C)CC[C@]12C` [compound 5, (2R,4aS,6aS,12bR,14aS,14bR)-N-((hexahydro-1H-pyrrolizin-7a-yl)methyl)-10-hydroxy-2,4a,6a,9,12b,14a-hexamethyl-11-oxo-1,2,3,4,4a,5,6,6a,11,12b,13,14,14a,14b-tetradecahydropicene-2-carboxamide], the half-inhibitory concentration (IC50) in assay [1] (setting [5]) worked out at 120 ± 50 nM; in assay [2], 2680 ± 810 nM; in assay [3] (setting [6]), 120 ± 20 nM; in assay [4] (HMEC-1, 72 h, MTT), 120 ± 30 nM.
The corresponding values for `CC1=C(O)C(=O)C=C2C1=CC=C1[C@@]2(C)CC[C@@]2(C)[C@@H]3C[C@](C)(C(=O)NCCNc4ccnc5cc(Cl)ccc45)CC[C@]3(C)CC[C@]12C` [compound 6, (2R,4aS,6aS,12bR,14aS,14bR)-N-(2-((7-chloroquinolin-4-yl)amino)ethyl)-10-hydroxy-2,4a,6a,9,12b,14a-hexamethyl-11-oxo-1,2,3,4,4a,5,6,6a,11,12b,13,14,14a,14b-tetradecahydropicene-2-carboxamide] are 140 ± 30 nM, 2150 ± 20 nM, 90 ± 30 nM and 400 ± 30 nM.
Take `CC1=C(O)C(=O)C=C2C1=CC=C1[C@@]2(C)CC[C@@]2(C)[C@@H]3C[C@](C)(C(=O)NCCSS(C)(=O)=O)CC[C@]3(C)CC[C@]12C` [compound 9, S-(2-((2R,4aS,6aS,12bR,14aS,14bR)-10-hydroxy-2,4a,6a,9,12b,14a-hexamethyl-11-oxo-1,2,3,4,4a,5,6,6a,11,12b,13,14,14a,14b-tetradecahydropicene-2-carboxamido)ethyl) methanesulfonothioate]: the IC50 in assay [1] (setting [7]) was 3070 ± 1360 nM; in assay [1] (setting [5]), 2000 to 4000 nM; in assay [2], 13000 ± 2480 nM; in assay [3] (setting [8]) it was 2310 ± 280 nM; in assay [3] (setting [6]) it was 2000 to 4000 nM; in assay [4] (HMEC-1, 72 h, MTT) it was 4070 ± 50 nM.
